Measured values as given in patent US5726195A, “Aminoacyl adenylate mimics as novel antimicrobial and antiparasitic agents” (Cubist Pharmaceuticals, Inc., priority 1996, dated 1998).
pIC50: −log10 of the molar value. ≈ marks a conversion by molar mass, not a printed value.

Key:
[1] = test system: S. epidermidis ATCC 33501; assay: Whole cell antimicrobial screen, MIC; assay type: cell-based; details: Staphylococcus epidermidis, ATCC33501
Method: (§1) Compounds were tested for antimicrobial activity against a panel of organisms according to standard procedures described by the National Committee for Clinical Laboratory Standards (NCCLS document M7-A3, Vol. 13, No. 25, 1993/NCCLS document M27-P, Vol. 12, No. 25, 1992). Compounds were dissolved in 100% dimethyl sulfoxide and were diluted to the final reaction concentration (0.1 μg/mL-500 μg/mL) in microbial growth media. In al cases the final concentration of dimethyl sulfoxide incubated with cells is less than or equal to 1%. For minimum inhibitory concentration (MIC) calculations, 2-fold dilutions of compounds were added to wells of a microtiter plate containing 5×10^4 bacteria or fungal cells in a final volume of 100 lambda of an appropriate media (Mueller-Hinton Broth; Haemophilus Test Media; Mueller-Hinton Broth+5% Sheep Blood; or […]). Plates were incubated overnight at an appropriate temperature (30° C.-37° C.) and optical densities (measure of cell growth) were measured using a commercial plate reader. The MIC value is defined as the lowest compound concentration inhibiting growth of the test organism.

E. faecium ATCC 6569 = assay: Whole cell antimicrobial screen, MIC; assay type: cell-based; details: Enterococcus faecium, ATCC6569
Method: as §1

E. faecalis ATCC 33011 = assay: Whole cell antimicrobial screen, MIC; assay type: cell-based; details: Enterococcus faecalis, ATCC33011
Method: as §1

C. albicans ATCC 10231 = assay: Whole cell antimicrobial screen, MIC; assay type: cell-based; details: Candida albicans, ATCC10231
Method: as §1

S. pyogenes ATCC 8668 = assay: Whole cell antimicrobial screen, MIC; assay type: cell-based; details: Streptococcus pyogenes, ATCC8668
Method: as §1

S. aureus ATCC 14154 = assay: Whole cell antimicrobial screen, MIC; assay type: cell-based; details: Staphylococcus aureus, ATCC14154
Method: as §1

S. aureus ATCC 6538P = assay: Whole cell antimicrobial screen, MIC; assay type: cell-based; details: Staphylococcus aureus, ATCC6538P
Method: as §1

[2] = test system: S. saprophyticus ATCC 35552; assay: Whole cell antimicrobial screen, MIC; assay type: cell-based; details: Staphylococcus saprophyticus, ATCC35552
Method: as §1

[3] = target: E. Coli. IleRS (isoleucyl-tRNA synthetase) (Escherichia coli, UniProt P00956); assay: Inhibition of isoleucyl-tRNA synthetase (aminoacylation of tRNA with [3H]isoleucine); assay type: biochemical; details: E. coli enzyme; irreversible inhibitors: values are 50% of the active enzyme concentration; read-out: IC50 E.Coli. IleRS
Method: The extent of aminoacylation of tRNA with isoleucine catalyzed by isoleucyl-tRNA synthetase enzyme was measured by monitoring the incorporation of [3H] isoleucine into trichloroacetic acid-precipitable tRNA in the presence of a compound of Formula I, as compared with activity in the absence of inhibitor. The isoleucyl-tRNA synthetase enzymes are well known in the prior art and can be obtained and purified by known methods (for example see: D. Kern et at., Biochimie, 61, 1257-1272 (1979) and J. Gilbart et al., Antimicrobial Agents and Chemotherapy, 37 (1), 32-38 (1993)).
Isoleucyl-tRNA synthetase enzyme (0.08-2.0 nM, preferably, 0.4 nM) was first pre-incubated at 25° C. with 0.05 mg/ml bovine serum albumin, 10 mM DTT, 2.5% dimethyl sulfoxide, with or without a compound of Formula I, for 20 minutes. At this point a substrate solution (a solution containing the following: ATP, [^3 H]isoleucine, tRNA, HEPES, magnesium chloride, and potassium chloride) was added to give a final concentration of 0.0286 mg/ml bovine serum albumin, 5.7 mM DTT, 4 mM ATP, 5-20 μM [^3 H] isoleucine (1-15 Ci/mmol), 90 μM crude tRNA or 2 μM isoleucine specific tRNA, 1.4% dimethyl sulfoxide, 30 mM HEPES (pH 7.5), 10 mM magnesium chloride, and 50 mM potassium chloride and incubated at 25° C. Aliquots were removed at selected times (e.g. 5, 10, 20 minutes) and applied to 3MM filter paper discs (Whatman) and then dropped into 5% (wt/vol) trichloroacetic acid for >5 minutes. Filters were washed for three 10-minute periods in 5% trichloroacetic acid, rinsed in 95% ethanol and diethyl ether, and radioactivity was measured with Betafluor™ (National Diagnostics) by liquid scintillation counting.
Inhibitor activity is reported in Table II as an IC50 value (inhibitor concentration causing 50% inhibition of enzyme activity) per a known amount of active enzyme. In the case of irreversible inhibitors (1:1 stoichiometry) these values are 50% of the active enzyme concentration. The IC50 (in nM, E. coli) values of representative compounds of the present invention are listed in the second column of Table II.

K. pneumonia ATCC 4352 = assay: Whole cell antimicrobial screen, MIC; assay type: cell-based; details: Klebsiella pneumoniae, ATCC4352
Method: as §1

B. subtilis ATCC 6633 = assay: Whole cell antimicrobial screen, MIC; assay type: cell-based; details: Bacillus subtilis, ATCC6633
Method: as §1

[4] = test system: M. catarrhalis ATCC 25240; assay: Whole cell antimicrobial screen, MIC; assay type: cell-based; details: Moraxella catarrhalis, ATCC25240
Method: as §1

[5] = test system: multidrug resistant Streptococcus pyogenes (#OTTO 209); assay: Mouse protection test against multidrug resistant Streptococcus pyogenes; assay type: in vivo, Streptococcus pyogenes; female CD-1 mice; details: 10 mg/kg sc (positive control), repeated at 4 hours, 7 days
Excerpt: (§2) The mouse protection test is an industry standard for measuring the efficacy of a test compound in vivo [for examples of this model see J. J. Clement, et al., Antimicrobial Agents and Chemotherapy, 38 (5), 1071-1078, (1994)]. As exemplified below, this test was used to show the in vivo efficacy of the compounds of the present invention against bacteria.
The in vivo activity of compound X against multidrug resistant bacteria was established by infecting female CD-1 mice (Charles River Lab, Massachusettes) weighing 20-24 g intraperitoneally with multidrug resistant Streptococcus pyogenes inoculum. The inoculum was prepared from multidrug resistant Streptococcus pyogenes (resistant to erythromycin, tetracycline, and chloramphenicol, #OTTO 209 obtained from Dr. Pentti Huovinen, National Public Health Institute, Finland) which was cultured in brain heart infusion broth (Baltimore Biological Laboratories, Maryland) at 37° C. for 2 hr, and then 0.1 ml of the culture was diluted with the medium to 1.0 ml for reading its OD at 600 nm (0.12). The turbidity of a 0.5 McFarland standard is equivalent to OD600 0.1, or 10^8 cfu/ml. Then, 4×10^8 cfu of the bacteria (333 μl was added to 20 ml of phosphate buffered saline (Sigma P-0261 ) containing 10 % hog gastric mucin (Sigma M-2378). All animals were injected with 0.5 ml of the inoculum, equivalent to 10^7 cfu/mouse which is the dose causing ~100% death of the animals without treatment.
Compound X (60 mg) was dissolved in 6.0 ml of 0.05M Tris.HCl (pH 8.8) to give a solution of 10 mg/ml. This solution was serially diluted two times with 0.05M Tris.HCl by 5-fold (1.0 ml to 5.0 ml) to give 2 and 0.4 mg/ml solutions. The known antibiotic vancomycin HCl (Sigma V-2002, in normal saline, 1 mg/ml, pH 6.0-7.0) was used as a positive control. All the solutions were filtered with 0.2 μm Nalgene syringe filter. Immediately after the bacterial inoculation, group 1 animals were subcutaneously (sc) injected with 0.05M Tris.HCl (no antibiotic) and groups 2 to 4 were given compound X sc at 4, 20 and 100 mg/kg, respectively. Group 5 animals received vancomycin sc at 10 mg/kg. These injections were repeated once at 4 hours after the inoculation for the respective groups. The injection volume at each time was 10 ml per kilogram of body weight. The 50% protective dose (PD50) is calculated on the basis of the number of mice surviving 7 days after inoculation.

[6] = test system: Streptococcus pyogenes (ATCC 8668); assay: Mouse protection test against wild type Streptococcus pyogenes; assay type: in vivo, Streptococcus pyogenes; female CD-1 mice; details: 10 mg/kg sc (positive control), repeated at 4 hours, 7 days
Excerpt: as §2
The in vivo antibacterial activity of compound X was established by infecting female CD-1 mice (Charles River Lab, Massachusettes) weighing 20-24 g intraperitoneally with Streptococcus pyogenes inoculum. The inoculum was prepared from Streptococcus pyogenes (ATCC 8668) which was cultured in brain heart infusion broth (Baltimore Biological Laboratories,Maryland) at 37° C. for 18 hr, and then 0.1 ml of the overnight culture was diluted with the medium to 5.0 ml for reading its OD at 600 nm (0.017). The turbidity of a 0.5 McFarland standard is equivalent to OD600 0.1, or 10^8 cfu/ml. Then, 8×10^5 cfu of the bacteria (940 μl of 1:1000 overnight culture) was added to 20 ml of phosphate buffered saline (Sigma P-0261 ) containing 5% hog gastric mucin (Sigma M-2378). All animals were injected with 0.5 ml of the inoculum, equivalent to 2×10^4 cfu/mouse which is the dose causing ~100% death of the animals without treatment.
Compound X (50 mg) was dissolved in 5.0 ml of 0.05M Tris.HCl (pH 8.8) to give a solution of 10 mg/ml. This solution was serially diluted with 0.05 M Tris.HCl by 5-fold (1.0 ml to 5.0 ml) to give 2, 0.4 and 0.08 mg/ml solutions. The known antibiotic erythromycin (Sigma E-6376, in phosphate buffered saline, 1 mg/ml, pH 7.0) was used as a positive control. All the solutions were filtered with 0.2 μm Nalgene syringe filter. Immediately after the bacterial inoculation, group 1 animals were subcutaneously (sc) injected with 0.05M Tris.HCl (no antibiotic) and groups 2 to 5 were given compound X sc at 0.8, 4, 20, and 100 mg/kg, respectively. Group 6 animals received erythromycin sc at 10 mg/kg. These injections were repeated once at 4 hours after the inoculation for the respective groups. The injection volume at each time was 10 ml per kilogram of body weight. The 50% protective dose (PD50) is calculated on the basis of the number of mice surviving 7 days after inoculation.

E. Coli. IleRS (isoleucyl-tRNA synthetase), sequence (P00956 whole entry): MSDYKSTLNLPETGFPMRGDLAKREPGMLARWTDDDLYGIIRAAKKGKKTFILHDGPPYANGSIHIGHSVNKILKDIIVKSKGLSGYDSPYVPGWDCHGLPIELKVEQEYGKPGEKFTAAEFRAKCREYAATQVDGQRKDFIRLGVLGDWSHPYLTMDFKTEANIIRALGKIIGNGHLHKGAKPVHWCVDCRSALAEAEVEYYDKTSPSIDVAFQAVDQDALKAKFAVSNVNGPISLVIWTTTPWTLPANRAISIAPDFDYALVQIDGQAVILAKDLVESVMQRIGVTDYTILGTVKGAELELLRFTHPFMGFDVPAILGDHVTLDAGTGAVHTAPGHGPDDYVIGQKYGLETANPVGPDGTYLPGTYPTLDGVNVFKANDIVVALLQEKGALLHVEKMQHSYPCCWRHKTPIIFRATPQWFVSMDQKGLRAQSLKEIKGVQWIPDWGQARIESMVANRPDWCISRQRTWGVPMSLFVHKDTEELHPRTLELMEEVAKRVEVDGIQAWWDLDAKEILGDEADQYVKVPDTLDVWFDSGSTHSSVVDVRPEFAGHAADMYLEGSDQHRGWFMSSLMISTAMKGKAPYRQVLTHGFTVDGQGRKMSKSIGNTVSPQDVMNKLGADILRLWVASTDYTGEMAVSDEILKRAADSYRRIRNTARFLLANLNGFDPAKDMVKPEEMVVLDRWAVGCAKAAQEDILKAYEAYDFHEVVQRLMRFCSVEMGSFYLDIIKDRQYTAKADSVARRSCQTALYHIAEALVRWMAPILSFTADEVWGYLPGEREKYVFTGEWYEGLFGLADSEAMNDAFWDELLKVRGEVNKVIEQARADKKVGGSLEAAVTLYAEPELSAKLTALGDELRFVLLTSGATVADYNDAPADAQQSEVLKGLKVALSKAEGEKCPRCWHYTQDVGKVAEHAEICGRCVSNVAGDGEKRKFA

Row | Structure (SMILES) | MIC [1] [µg/mL] | MIC (E. faecium ATCC 6569) [µg/mL] | MIC (E. faecalis ATCC 33011) [µg/mL] | MIC (C. albicans ATCC 10231) [µg/mL] | MIC (S. pyogenes ATCC 8668) [µg/mL] | MIC (S. aureus ATCC 14154) [µg/mL] | MIC (S. aureus ATCC 6538P) [µg/mL] | MIC [2] [µg/mL] | pIC50 [3] | MIC (K. pneumonia ATCC 4352) [µg/mL] | MIC (B. subtilis ATCC 6633) [µg/mL] | MIC [4] [µg/mL] | Protective % [5] [%] | Number of Alive ([5]; of 5 mice) | Protective % [6] [%] | Number of Alive ([6]; of 5 mice)
1 | CC[C@H](C)[C@H](N)C(=O)NS(=O)(=O)OC[C@H]1O[C@@H](CCn2nnc(-c3ccc(Sc4ccccc4)cc3)n2)[C@H](O)[C@@H]1O [IX] | 5 (≈ 8.24 µM) | 10 (≈ 16.5 µM) | 500 (≈ 824 µM) | > 500 | 0.5 (≈ 0.824 µM) | 50 (≈ 82.4 µM) | 25 (≈ 41.2 µM) | 25 (≈ 41.2 µM) | 8.30 |  |  |  |  |  |  | 
2 | CC[C@H](C)[C@H](N)C(=O)NS(=O)(=O)OC[C@H]1O[C@@H](CCn2nnc(-c3ccc(OCc4ccc([N+](=O)[O-])s4)cc3)n2)[C@H](O)[C@@H]1O [XVIII] | 5 (≈ 7.63 µM) | > 500 | > 500 | 100 (≈ 153 µM) | 2 (≈ 3.05 µM) | 25 (≈ 38.1 µM) | 5 (≈ 7.63 µM) | 5 (≈ 7.63 µM) | 9.22 |  |  |  |  |  |  | 
3 | CC[C@H](C)[C@H](N)C(=O)NS(=O)(=O)OC[C@H]1O[C@@H](CCn2nnc(-c3ccc(-c4ccccc4C)cc3)n2)[C@H](O)[C@@H]1O [XIX] | 5 (≈ 8.49 µM) | 200 (≈ 340 µM) | 300 (≈ 510 µM) | 500 (≈ 849 µM) |  | 50 (≈ 84.9 µM) | 50 (≈ 84.9 µM) | 25 (≈ 42.5 µM) | 8.28 | 100 (≈ 170 µM) | 50 (≈ 84.9 µM) | 50 (≈ 84.9 µM) |  |  |  | 
4 | CN[C@H](CC(C)C)C(=O)N[C@H]1C(=O)N[C@@H](CC(N)=O)C(=O)N[C@H]2C(=O)N[C@H]3C(=O)N[C@H](C(=O)N[C@H](C(=O)O)c4cc(O)cc(O)c4-c4cc3ccc4O)[C@H](O)c3ccc(c(Cl)c3)Oc3cc2cc(c3O[C@@H]2O[C@H](CO)[C@@H](O)[C@H](O)[C@H]2O[C@H]2C[C@](C)(N)[C@H](O)[C@H](C)O2)Oc2ccc(cc2Cl)[C@H]1O [Vancomycin, vancomycin, reference compound] |  |  |  |  |  |  |  |  |  |  |  |  | 100 | 5 |  | 
5 | CC[C@H](C)[C@H](N)C(=O)NS(=O)(=O)OC[C@H]1O[C@@H](CCn2nnc(-c3ccc(Oc4ccc([N+](=O)[O-])s4)cc3)n2)[C@H](O)[C@@H]1O [XXXI] | 5 (≈ 7.79 µM) | 100 (≈ 156 µM) | > 500 |  | 4 (≈ 6.23 µM) | 10 (≈ 15.6 µM) | 5 (≈ 7.79 µM) | 2 (≈ 3.12 µM) | 8.89 |  |  |  |  |  |  | 
6 | CC[C@H](C)[C@H](N)C(=O)NS(=O)(=O)OC[C@H]1O[C@@H](CCn2nnc(-c3ccc(-c4ccccc4)cc3C)n2)[C@H](O)[C@@H]1O [XXI] | 50 (≈ 84.9 µM) | 500 (≈ 849 µM) | > 500 |  |  | 500 (≈ 849 µM) | 100 (≈ 170 µM) | 50 (≈ 84.9 µM) | 9.30 | 100 (≈ 170 µM) | 100 (≈ 170 µM) | < 50 |  |  |  | 
7 | CC[C@H](C)[C@H](N)C(=O)NS(=O)(=O)OC[C@H]1O[C@@H](CCn2nnc(-c3ccc(C(=O)OCc4ccccc4)cc3)n2)[C@H](O)[C@@H]1O [VI] | 5 (≈ 7.9 µM) | 100 (≈ 158 µM) | > 500 | > 500 | > 5 | 50 (≈ 79 µM) | 25 (≈ 39.5 µM) | 25 (≈ 39.5 µM) | 8.12 |  |  |  |  |  |  | 
8 | CC[C@H]1OC(=O)[C@H](C)[C@@H](O[C@H]2C[C@@](C)(OC)[C@@H](O)[C@H](C)O2)[C@H](C)[C@@H](O[C@@H]2O[C@H](C)C[C@H](N(C)C)[C@H]2O)[C@](C)(O)C[C@@H](C)C(=O)[C@H](C)[C@@H](O)[C@]1(C)O [Erythromycin, erythromycin, reference compound] |  |  |  |  |  |  |  |  |  |  |  |  |  |  | 100 | 5
